How the values were obtained:
[1] = ref. [14]; cited from earlier work
[2] = test system: PC-12 cells; test: Quantification of autophagy GFP-LC3 puncta in PC-12 cells; format: cell-based, rat
Procedure: (§1) GFP-LC3 puncta formation was quantified as previously described. In brief, PC-12 cells grown on coverslips in a 6-well plate were fixed in 4% paraformaldehyde for 20 minutes at room temperature and then rinsed with PBS. Slides were mounted with FluorSave™ mounting media (Calbiochem, San Diego, Calif.) and examined by fluorescence microscopy. The number of GFP-positive cells with GFP-LC3 puncta formation was examined under the Nikon ECLIPSE 80i microscope. Representative images were captured with CCD digital camera Spot RT3™ (Diagnostic Instruments, Inc., Melville, N.Y.). To quantify for autophagy, the percentage of cells with punctate GFP-LC3 fluorescence was calculated by counting the number of the cells with punctate GFP-LC3 fluorescence in GFP-positive cells. A minimum of 150 cells from 3 randomly selected fields was scored.
The data of PC-12 cells with GFP-LC3 expression without any treatment of neferine was used as control.

[3] = test system: LC3-II; test: Detection of autophagic marker protein LC3 conversion (western blot); format: cell-based, rat; details: PC-12 cells, with lysosomal protease inhibitors E64d and pepstatin A (FIG. 1D)
Procedure: After neferine treatments with or without autophagy inhibitor (3-Methyladenine, 3-MA) and protease inhibitor (10 μg/mL E64D and pepstain A), cells were harvested and lysed in RIPA buffer (Cell Signaling Technologies Inc., Beverly, Mass.). The cell lysates were then resolved by SDS-PAGE. After electrophoresis, the proteins from SDS-PAGE were transferred to nitrocellulose membrane which was then blocked with 5% non-fat dried milk for 60 minutes. The membrane was then incubated with LC3 primary antibodies (1:1000) in TBST overnight at 4° C. After that, the membrane was further incubated with HRP-conjugated secondary antibodies for 60 minutes. Finally, protein bands were visualized by using the ECL Western Blotting Detection Reagents (Invitrogen, Paisley, Scotland, UK).
To further confirm its autophagic activity, PC-12 cells treated with neferine were analyzed by western blot for LC3-I to LC3-II conversion. To differentiate that the autophagy effect was due to LC3-II formation, rather than failure of fusion between autophagosome and lysosomes, level of LC3-II was assayed with the presence of two lysosomal inhibitors (E64d and pepstatin A) that […].

[4] = test system: AMPK-mTOR signaling pathway; test: Detection of mTOR signaling marker proteins (p-AMPK, p-p70S6K) and LC3-II by western blot; format: cell-based, rat
Procedure: PC-12 cells were treated with neferine (7.5 μM) from 0-24 h. Cells treated with 0.3 μM of rapamycin (Rap) for 24 h were used as the positive control. Cell lysate was then harvested and analyzed for p-AMPK, AMPK, p-p70S6K, p70S6K and α-tubulin respectively. PC-12 cells were treated with 7.5 μM of neferine with or without AMPK inhibitor (compound C, CC, 5 μM) for 24 h for the detection of LC3-II marker. Cell lysates were analyzed for LC3 I/II and β-actin, respectively. After that, the membrane was further incubated with HRP-conjugated secondary antibodies for 60 minutes. Finally, protein bands were visualized by using the ECL Western Blotting Detection Reagents (Invitrogen).

[5] = test system: PC-12 cells expressing GFP-LC3; test: Quantification of neferine-mediated autophagy (GFP-LC3 puncta) in the presence of compound C; format: cell-based, rat; details: 7.5 μM neferine plus compound C 5 μM, PC-12 cells (FIGS. 2B, 2C)
Procedure: GFP-LC3 puncta formation was quantified as previously described. In brief, PC-12 cells expressing GFP-LC3 were treated with 7.5 μM neferine in the presence of compound C (CC, 5 μM) for 12 h. The cells were then fixed in 4% paraformaldehyde for 20 minutes at room temperature and then rinsed with PBS. Slides were mounted with FluorSave™ mounting media (Calbiochem) and examined by fluorescence microscopy. To quantify for autophagy, the percentage of cells with punctate GFP-LC3 fluorescence was calculated by counting the number of the cells with punctate GFP-LC3 fluorescence in GFP-positive cells. A minimum of 150 cells from 3 randomly selected fields was scored.

[6] = test system: mutant huntingtin EGFP-HDQ 55/74; test: Removal of mutant huntingtin EGFP-HDQ 55/74, immunoblotting against EGFP; format: cell-based, rat; details: 7.5 μM neferine, 24 hours, transfected PC-12 cells (FIG. 3)
Procedure: PC-12 cells were transfected transiently with EGFP-HDQ 55/74 plasmids for 24 hours using Lipofectamine Plus LTX reagent (Invitrogen) according to the manufacturer's protocol. The transfected cells were then treated with 7.5 μM neferine for 24 hours. The removal of mutant huntingtin, EGFP-HDQ 55 and 74, was then quantitated by immunoblotting with antibody against EGFP.

[7] = test system: Atg7 wild-type mouse embryonic fibroblasts (Atg7+/+); test: GFP-LC3 puncta in Atg7 wild-type MEFs; format: cell-based; details: 7.5 μM neferine, 24 h, Atg7+/+ MEFs (FIGS. 4A, 4B)
Procedure: as §1, with “In brief, both Atg7 wild-type and deficient mouse embryonic fibroblasts (MEFs) grown on” for “In brief, PC-12 cells grown on”, “plate were treated with indicated concentrations of neferine. The cells were then fixed in” for “plate were fixed in”

[8] = test system: Atg7-knockout mouse embryonic fibroblasts (Atg7−/−); test: GFP-LC3 puncta in Atg7 deficient MEFs; format: cell-based; details: 7.5 μM neferine, 24 h, Atg7−/− MEFs (FIGS. 4A, 4B)
Procedure: as §1, with “In brief, both Atg7 wild-type and deficient mouse embryonic fibroblasts (MEFs) grown on” for “In brief, PC-12 cells grown on”, “plate were treated with indicated concentrations of neferine. The cells were then fixed in” for “plate were fixed in”

[9] = test system: EGFP-HDQ74 transfected Atg7 wild-type MEFs; test: Mutant huntingtin aggregates in EGFP-HDQ74 transfected Atg7 wild-type MEFs; format: cell-based, mouse; details: 7.5 μM neferine, 24 h, Atg7+/+ cells (FIGS. 5A, 5B)
Procedure: (§2) In brief, both EGFP-HDQ74 transfected Atg7 wild-type and deficient mouse embryonic fibroblasts (MEFs) grown on coverslips in a 6-well plate were treated with indicated concentrations of neferine. The cells were then fixed in 4% paraformaldehyde for 20 minutes at room temperature and then rinsed with PBS. Slides were mounted with FluorSave™ mounting media (Calbiochem, San Diego, Calif.) and examined by fluorescence microscopy. The number of cells with GFP-aggregates formation was examined under the Nikon ECLIPSE 80i microscope. Representative images were captured with CCD digital camera Spot RT3™ (Diagnostic Instruments, Inc., Melville, N.Y.). To quantify for the clearance of mutant huntingtin, the percentage of cells with GFP-aggregates was calculated by counting the number of the cells with […] in GFP-positive cells. A minimum of 150 cells from 3 randomly selected fields was scored.

[10] = test system: EGFP-HDQ74 transfected Atg7 deficient MEFs; test: Mutant huntingtin aggregates in EGFP-HDQ74 transfected Atg7 deficient MEFs; format: cell-based, mouse; details: 7.5 μM neferine, 24 h, Atg7−/− cells (FIGS. 5A, 5B)
Procedure: as §2

[11] = test system: PC-12 cells; test: Cytotoxicity, crystal violet staining cell viability assay; format: cell-based, rat; details: 7.5 μM neferine, 24 hours, PC-12 cells (FIGS. 6A, 6B)
Procedure: The test compound of neferine was dissolved in dimethyl sulfoxide (DMSO) at a final concentration of 100 mmol/L and stored at −20° C. For cell viability assay measured by crystal violet staining, PC-12 cells were incubated in 35 mm disc followed by the addition of 7.5 μM neferine for 24 hours. The cells were then incubated with crystal violet for 10 minutes followed by a ddH2O wash. The stained cell images were captured by CCD digital camera Spot RT3™ under the Nikon ECLIPSE 80i microscope with 4× magnification. Cell viability was quantified by dissolving stained cells in 10% acetic acid (200 μL/well). The colorimetric reading of the solute mixture was then determined by spectrophotometer at OD 560 nm. The percentage of cell viability was calculated using the following formula: Cell viability (%)=Cells number treated/Cells number DMSO control×100. Data were obtained from three independent experiments.

[12] = test system: PC-12 cells transfected with mutant huntingtin EGFP-HDQ 55 and 74; test: MTT cytotoxicity assay in PC-12 cells expressing mutant huntingtin; format: cell-based, rat; details: 7.5 μM neferine, 24 h, PC-12 cells with EGFP-HDQ 55 or EGFP-HDQ 74 (FIG. 7)
Procedure: Cell cytotoxicity assay: Cytotoxicity was assessed using the 3-(4,5-dimethylthiazol-2-yl)-2,5-diphenyltetrazolium bromide assay. PC-12 cells were transfected with or without mutant huntingtin EGFP-HDQ 55 and 74 for 16 h, the PC-12 cells (4000 cells) were then seeded on 96-well plates per well and then exposed to 7.5 μM of neferine for 24 h […]. Subsequently, 10 μL of MTT reagents was added to each well and incubated at 37° C. for 4 hours, followed by the addition of 100 μL solubilization buffer (10% SDS in 0.01 mol/L HCl) and overnight incubation. Absorbance at 585 nm was determined from each well on the following day. The percentage of cell viability was calculated using the following formula: Cell viability (%)=Cells number treated/Cells number DMSO control×100. Data was obtained from three independent experiments.

[13] = test system: mutant huntingtin; details: mouse model of Huntington's disease, ref. [10]; cited from earlier work
[14] = 7.5 μM neferine, 0-24 h, PC-12 cells (FIG. 2A)

In the case of `O=c1c(O)c(-c2ccc(O)c(O)c2)oc2cc(O)ccc12` [fisetin], the bioavailability [1] is listed as “poor bioavailability”, the effective concentration [1] is listed as “high effective concentration” and the lipophilicity [1] is listed as “low lipophilicity”.

In the case of `COc1ccc(C[C@@H]2c3cc(Oc4cc(C[C@@H]5c6cc(OC)c(OC)cc6CCN5C)ccc4O)c(OC)cc3CCN2C)cc1` [neferine], the “percentage of cells with GFP-LC3 puncta formation” value ([2]; 7.5 μM neferine, 24 h, PC-12 cells with GFP-LC3 expression, vs untreated control (FIGS. 1B, 1C)) is reported as “increased the percentage of cells with GFP-LC3 puncta formation significantly”, the “GFP-LC3 puncta formation in presence of autophagy inhibitor 3-MA” value ([2]; neferine plus 3-Methyladenine (3-MA), PC-12 cells) is reported as “significant reduction in GFP-LC3 puncta formation” and the “rate of LC3-II formation (LC3-I to LC3-II conversion)” value [3] is reported as “increases the rate of LC3-II formation”. The “LC3-II level in presence of AMPK inhibitor compound C” value ([4]; 7.5 μM neferine plus compound C 5 μM, 24 h, PC-12 cells, western blot (FIG. 2D)) was “decrease in LC3-II level”, the p70S6K phosphorylation [4, 14] was “concomitant reduction in its downstream p70S6K phosphorylation” and the “phosphorylation of AMPK” value [4, 14] was “activate the phosphorylation of AMPK in a time dependent manner”. For the same compound, the “neferine-induced GFP-LC3 puncta formation in presence of AMPK inhibitor compound C” value [5] was “significant reduction in neferine-induced GFP-LC3 puncta formation”, the “clearance of overexpressed EGFP-tagged mutant huntingtin EGFP-HDQ 55” value [6] was “enhanced the clearance” and the “clearance of overexpressed EGFP-tagged mutant huntingtin EGFP-HDQ 74” value [6] was “enhanced the clearance”. The GFP-LC3 puncta formation [7] was “induce GFP-LC3 puncta formation”, the GFP-LC3 puncta formation [8] was “not in Atg7-knockout mouse embryonic fibroblasts” and the “clearance of mutant huntingtin EGFP-HDQ74 inclusions” value [9] was “enhance the clearance of mutant huntingtin EGFP-HDQ74 inclusions”. For the same compound, the “clearance of mutant huntingtin EGFP-HDQ74 inclusions” value [10] was “not in autophagy-deficient cells”, the “cytotoxicity / morphological damage (crystal violet assay)” value [11] was “no significant morphological damage” and the “cell death induced by mutant huntingtin (cell viability, MTT)” value [12] was “attenuated cell death induced by mutant huntingtin”.

In the case of `C1COC(NC(C2CC2)C2CC2)=N1` [rilmenidine], the “toxicity of mutant huntingtin” value [13] is listed as “attenuate the toxicity of mutant huntingtin”.
